Laboratory results: patent US8440646B1 (priority 2006, dated 2013)
In brackets after ≈: the same amount, converted by molar mass. Where two headings read alike, the source gives them in different places.

Legend:
[1] = tested on: Protein synthesis of S. aureus RN450; experiment: microbe, parasite or virus in culture; assay type: cell-based; conditions: for IC50 / IC90: Staphylococcus aureus; for IC50: read-out: Protein synthesis IC50; for IC90: read-out: Protein synthesis IC90
S. aureus RN450 = experiment: microbe, parasite or virus in culture; assay type: cell-based; conditions: Staphylococcus aureus
[2] = tested on: Peptidoglycan synthesis of S. aureus RN450; experiment: microbe, parasite or virus in culture; assay type: cell-based; conditions: Staphylococcus aureus; for IC50: read-out: Peptidoglycan synthesis IC50; for IC90: read-out: Peptidoglycan synthesis IC90
16S rRNA = conditions: cited from earlier work
B. cereus 98/2658 = experiment: microbe, parasite or virus in culture; assay type: cell-based; conditions: Bacillus cereus
S. pneumoniae 157E [3] = experiment: microbe, parasite or virus in culture; assay type: cell-based; conditions: Streptococcus pneumoniae
S. aureus RN4250 = experiment: microbe, parasite or virus in culture; assay type: cell-based; conditions: for MIC: Staphylococcus aureus, RN4250
protein synthesis = conditions: cited from earlier work
S. aureus MRSA5 = experiment: microbe, parasite or virus in culture; assay type: cell-based; conditions: Staphylococcus aureus
B. cereus 97/4144 = experiment: microbe, parasite or virus in culture; assay type: cell-based; conditions: Bacillus cereus
E. faecalis 29212 = experiment: microbe, parasite or virus in culture; assay type: cell-based; conditions: Enterococcus faecalis
B. cereus 95/3032 = experiment: microbe, parasite or virus in culture; assay type: cell-based; conditions: Bacillus cereus
E. faecium 494 = experiment: microbe, parasite or virus in culture; assay type: cell-based; conditions: Enterococcus faecium
S. pneumoniae 700905 [4] = experiment: microbe, parasite or virus in culture; assay type: cell-based; conditions: Streptococcus pneumoniae
B. cereus 98/2620 = experiment: microbe, parasite or virus in culture; assay type: cell-based; conditions: Bacillus cereus
B. anthracis panel = experiment: microbe, parasite or virus in culture; assay type: cell-based; conditions: Bacillus anthracis
B. anthracis Vollum1B = experiment: microbe, parasite or virus in culture; assay type: cell-based; conditions: Bacillus anthracis
B. anthracis Ame = experiment: microbe, parasite or virus in culture; assay type: cell-based; conditions: Bacillus anthracis
B. anthracis V770NPIR = assay type: cell-based
B. anthracis Sterne = experiment: microbe, parasite or virus in culture; assay type: cell-based; conditions: Bacillus anthracis
B. anthracis V770 = experiment: microbe, parasite or virus in culture; assay type: cell-based; conditions: Bacillus anthracis
S. pneumoniae PBS1339 = tested on: S. pneumoniae PBS1339; set-up: species or system mice; conditions: mouse, in vivo
S. pneumoniae 157E [5] = tested on: S. pneumoniae 157E; set-up: species or system mice; conditions: mouse, in vivo
S. pneumoniae 700905 [6] = tested on: S. pneumoniae 700905; set-up: species or system mice; conditions: mouse, in vivo
CHO-K1 = conditions: Chinese hamster
COS-1 = conditions: African green monkey
S. pneumoniae 157E [7] = experiment: animal or person; assay type: in vivo, mice; conditions: Streptococcus pneumoniae, 157E, in Mus musculus, 48 h, read-out: % survival; for responders at 5 mg/kg: sc

Structure (SMILES) | IC50 [1] [µg/mL] | IC90 [1] [µg/mL] | MIC (S. aureus RN450) [µg/mL] | IC50 [2] [µg/mL] | IC90 [2] [µg/mL] | effect on reactivity of nucleotides within the 16S rRNA (chemical footprint) (16S rRNA) | MIC (B. cereus 98/2658) [µg/mL] | MIC (S. pneumoniae 157E [3]) [µg/mL] | susceptibility in words (S. aureus RN4250) | inhibition of protein synthesis in words (protein synthesis) | MIC (S. aureus MRSA5) [µg/mL] | MIC (E. faecalis 29212) [µg/mL] | MIC (E. faecium 494) [µg/mL] | MIC (S. pneumoniae 700905 [4]) [µg/mL] | MIC (B. anthracis Vollum1B) [µg/mL] | MIC (B. anthracis Ame) [µg/mL] | MIC (B. anthracis Sterne) [µg/mL] | MIC (B. anthracis V770) [µg/mL] | Tox50 (CHO-K1) [µg/mL] | Tox50 (COS-1) [µg/mL] | other results
CN(C)c1cc(NC(=O)CNC(C)(C)C)c(O)c2c1C[C@H]1C[C@H]3[C@H](N(C)C)C(O)=C(C(N)=O)C(=O)[C@@]3(O)C(O)=C1C2=O [Tigecycline, reference compound] | 0.12 (≈ 0.205 µM) | 0.68 (≈ 1.16 µM) | 2 (≈ 3.41 µM) | > 32 | > 32 | chemical footprint similar to that of tetracycline |  |  |  |  |  |  |  |  |  |  |  |  |  |  | macromolecular synthesis profile in words [1]: profile similar to class I compounds
CN(C)C1C(O)=C(C(N)=O)C(=O)C2(O)C(O)=C3C(=O)c4c(O)cccc4C(C)(O)C3CC12 (stereo not shown) [Tetracycline, reference compound] | < 0.03 | 0.11 (≈ 0.248 µM) | 0.06 (≈ 0.135 µM) | > 32 | > 32 | affect the reactivity of nucleotides | ≤ 0.06 | 0.06 (≈ 0.135 µM) | resistant | potent inhibitors of protein synthesis | 32 (≈ 72 µM) | 16 (≈ 36 µM) | 64 (≈ 144 µM) | 32 (≈ 72 µM) |  |  |  |  |  |  | MIC (S. aureus RN4250): 64 µg/mL (≈ 144 µM); MIC (B. cereus 97/4144): 64 µg/mL (≈ 144 µM); MIC (B. cereus 95/3032): ≤ 0.06 µg/mL; MIC (B. cereus 98/2620): 32 µg/mL (≈ 72 µM)
Cc1c2c(c(O)c3c(O)cccc13)C(=O)[C@]1(O)C(=O)C(C(N)=O)=C(O)[C@@H](N(C)C)[C@@H]1C2 [Anhydro-tetracycline, anhydrotetracycline, reference compound] | < 0.03 | < 0.03 | 2 (≈ 4.69 µM) | 19.2 (≈ 45 µM) | > 32 | A similar effect was not seen |  |  |  | weak effects |  |  |  |  |  |  |  |  |  |  | 
C[C@H]1c2cccc(O)c2C(=O)C2=C(O)[C@]3(O)C(=O)C(C(N)=O)=C(O)[C@@H](N(C)C)[C@@H]3[C@@H](O)[C@@H]21 [Doxycycline, reference compound] | < 0.03 | < 0.03 | 0.06 (≈ 0.135 µM) | 3.9 (≈ 8.78 µM) | 18.2 (≈ 41 µM) | affect the reactivity of nucleotides | ≤ 0.06 | 0.06 (≈ 0.135 µM) | resistant | potent inhibitors of protein synthesis | 4 (≈ 9 µM) | 4 (≈ 9 µM) | 16 (≈ 36 µM) | 4 (≈ 9 µM) | 0.06 (≈ 0.135 µM) | < 0.03 | 0.12 (≈ 0.27 µM) | 1 (≈ 2.25 µM) |  |  | MIC50 (B. anthracis panel): 0.06 µg/mL (≈ 0.135 µM); MIC90 (B. anthracis panel): 0.25 µg/mL (≈ 0.563 µM); MIC (S. aureus RN4250): 4 µg/mL (≈ 9 µM); susceptibility in words (B. anthracis V770NPIR): fully doxycycline-resistant; MIC (B. cereus 97/4144): 4 µg/mL (≈ 9 µM); MIC (B. cereus 95/3032): ≤ 0.06 µg/mL; PD50 (S. pneumoniae PBS1339; iv): 7.1 mg/kg; PD50 (S. pneumoniae PBS1339; po): 35.3 mg/kg; MIC (B. cereus 98/2620): 4 µg/mL (≈ 9 µM)
CN(C)c1ccc(O)c2c1C[C@H]1C[C@H]3[C@H](N(C)C)C(O)=C(C(N)=O)C(=O)[C@@]3(O)C(O)=C1C2=O [Minocycline, reference compound] | < 0.03 | 0.1 (≈ 0.219 µM) | 0.25 (≈ 0.546 µM) | 4.6 (≈ 10.1 µM) | 20.9 (≈ 45.7 µM) | affect the reactivity of nucleotides | ≤ 0.06 | 0.06 (≈ 0.131 µM) | susceptible | potent inhibitors of protein synthesis | 2 (≈ 4.37 µM) | 4 (≈ 8.74 µM) | 16 (≈ 35 µM) | 8 (≈ 17.5 µM) |  |  |  |  |  |  | MIC (S. aureus RN4250): 0.5 µg/mL (≈ 1.09 µM); MIC (B. cereus 97/4144): 0.5 µg/mL (≈ 1.09 µM); PD50 (S. pneumoniae 157E [5]; iv): 0.53 mg/kg; PD50 (S. pneumoniae 157E [5]; po): 1.5 mg/kg; MIC (B. cereus 95/3032): ≤ 0.06 µg/mL; PD50 (S. pneumoniae 700905 [6]; iv): >50 mg/kg; PD50 (S. pneumoniae 700905 [6]; po): >50 mg/kg; PD50 (S. pneumoniae PBS1339; iv): 4.5 mg/kg; PD50 (S. pneumoniae PBS1339; po): 3.6 mg/kg; MIC (B. cereus 98/2620): 0.5 µg/mL (≈ 1.09 µM)
CN(C)c1cc(CN2CCC(F)(F)CC2)c(O)c2c1C[C@H]1C[C@H]3[C@H](N(C)C)C(O)=C(C(N)=O)C(=O)[C@@]3(O)C(O)=C1C2=O [Compound H] |  |  |  |  |  |  |  |  |  |  | 0.35 (≈ 0.593 µM) | 0.5 (≈ 0.847 µM) | 0.5 (≈ 0.847 µM) | 0.06 (≈ 0.102 µM) | < 0.03 | < 0.03 | < 0.03 | < 0.03 | >100 | >100 | IV and PO efficacy in words (S. pneumoniae 157E [5]): exhibits IV and PO efficacy; PD50 (S. pneumoniae 157E [5]; iv): 1.1 mg/kg; PD50 (S. pneumoniae 157E [5]; po): 5 mg/kg; oral activity in words (S. pneumoniae 157E [5]; po): exhibited oral activity; PD50 (S. pneumoniae 700905 [6]; iv): 2.2 mg/kg; PD50 (S. pneumoniae 700905 [6]; po): 12.7 mg/kg; efficacy in model of lung infection in words (S. pneumoniae PBS1339): efficacious; PD50 (S. pneumoniae PBS1339; iv): <5.0 mg/kg; PD50 (S. pneumoniae PBS1339; po): 3.6 mg/kg
CC(C)c1cc(CN2CC=CCC2)c(O)c2c1C[C@H]1C[C@H]3[C@H](N(C)C)C(O)=C(C(N)=O)C(=O)[C@@]3(O)C(O)=C1C2=O [AF] |  |  |  |  |  |  |  |  |  |  | 0.13 (≈ 0.236 µM) | 0.13 (≈ 0.236 µM) | 0.25 (≈ 0.453 µM) | 0.06 (≈ 0.109 µM) | < 0.03 | < 0.03 | < 0.03 | 0.06 (≈ 0.109 µM) | >100 | >100 | 
CN(C)c1cc(CN2Cc3ccccc3C2)c(O)c2c1C[C@H]1C[C@H]3[C@H](N(C)C)C(O)=C(C(N)=O)C(=O)[C@@]3(O)C(O)=C1C2=O [AI] |  |  |  |  |  |  |  |  |  |  | 0.5 (≈ 0.849 µM) | 0.5 (≈ 0.849 µM) | 0.5 (≈ 0.849 µM) | 0.06 (≈ 0.102 µM) | < 0.03 | 0.06 (≈ 0.102 µM) | < 0.03 | 0.12 (≈ 0.204 µM) | >100 | >100 | responders at 10 mg/kg (S. pneumoniae 157E [7]; po): 0%; responders at 5 mg/kg (S. pneumoniae 157E [7]): 40%
COc1ccc(-c2cc(CNC(C)CF)c(O)c3c2C[C@H]2C[C@H]4[C@H](N(C)C)C(O)=C(C(N)=O)C(=O)[C@@]4(O)C(O)=C2C3=O)cn1 (stereo partly shown) [AM] |  |  |  |  |  |  |  |  |  |  | 0.25 (≈ 0.409 µM) | 0.13 (≈ 0.213 µM) | 0.25 (≈ 0.409 µM) | 0.06 (≈ 0.0983 µM) | 0.06 (≈ 0.0983 µM) | 0.06 (≈ 0.0983 µM) | 0.06 (≈ 0.0983 µM) | 0.12 (≈ 0.197 µM) | 92.85 | >100 | responders at 50 mg/kg (S. pneumoniae 157E [7]; po): 0%; responders at 5 mg/kg (S. pneumoniae 157E [7]): 100%
CN(C)c1cc(CN2CCC3CCCCC3C2)c(O)c2c1C[C@H]1C[C@H]3[C@H](N(C)C)C(O)=C(C(N)=O)C(=O)[C@@]3(O)C(O)=C1C2=O (stereo partly shown) [AJ] |  |  |  |  |  |  |  |  |  |  | 0.5 (≈ 0.821 µM) | 0.5 (≈ 0.821 µM) | 0.5 (≈ 0.821 µM) | 0.06 (≈ 0.0986 µM) | < 0.03 | < 0.03 | < 0.03 | < 0.03 | >100 | >100 | responders at 50 mg/kg (S. pneumoniae 157E [7]; po): 80%; responders at 5 mg/kg (S. pneumoniae 157E [7]): 100%
